The values that follow come from PubChem BioAssay (NCI).

Test systems include CAKI-1 renal; HCC-2998 colon; HCT-15 colon; HOP-62 NSCLC; OVCAR-3 ovarian; PC-3 prostate; SF-539 CNS; SK-MEL-28 melanoma; SNB-19 CNS; SNB-75 CNS.
Common to all, as to test: growth of human tumour cells (NCI), 48 h

Values joined by “and” are separate entries in the source; they are usually repeats but may differ in a detail not shown here. Equal values may be shown once.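 Method: 48-hour compound exposure of cells in 96-well plates, five concentrations, linear interpolation of endpoints. At the GI50, growth is halved. TGI: total growth inhibition.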

On to `COc1ccc(C=Nc2c(C(=O)Nc3cccc(Cl)c3C)sc3nc(C)c(C(=O)/C=C/c4ccc(OC)cc4)cc23)cc1`, for which the GI50 was 0.652 µM in the assay on CAKI-1 renal; 9.89 µM with HCC-2998 colon; 0.382 µM in the assay on HCT-15 colon; 1.05 µM with HOP-62 NSCLC; 0.267 µM in the assay on OVCAR-3 ovarian; 0.281 µM with PC-3 prostate. Further, the GI50 was 0.449 µM in the assay with SF-539 CNS, 0.288 µM in the assay on SK-MEL-28 melanoma, 1.58 µM with SNB-19 CNS and 191 nM with SNB-75 CNS. The TGI with CAKI-1 renal was over 50 µM; with HCC-2998 colon it was over 50 µM; in the assay on HCT-15 colon, over 50 µM; in the assay with HOP-62 NSCLC, over 27.5 µM; in the assay on OVCAR-3 ovarian, 5.95 µM; in the assay with PC-3 prostate it was over 50 µM. Also, the TGI with SF-539 CNS is 2.41 µM; with SK-MEL-28 melanoma, over 50 µM; in the assay on SNB-19 CNS it was 28.3 µM; with SNB-75 CNS, 1.88 µM.
Consider `CO[C@H]1C=CO[C@@]2(C)Oc3c(C)c(O)c4c(O)c(c(CN5CCN(C)CC5)c(O)c4c3C2=O)NC(=O)/C(C)=C\C=C[C@H](C)[C@H](O)C(C)[C@@H](O)C(C)[C@H](OC(C)=O)[C@@H]1C` (stereo partly drawn), for which the TGI with CAKI-1 renal is over 100 µM; in the assay with HCC-2998 colon, over 100 µM; in the assay on HCT-15 colon it was over 100 µM; with HOP-62 NSCLC it was over 100 µM; with OVCAR-3 ovarian, 14.4 µM; in the assay with PC-3 prostate, over 100 µM. For the same molecule, the TGI was over 68.5 µM in the assay on SF-539 CNS, over 100 µM with SK-MEL-28 melanoma, over 100 µM in the assay on SNB-19 CNS and over 100 µM with SNB-75 CNS.
Consider `O=C1C(Cl)=C(Nc2ccc(Nc3ccccc3)c(NC3=C(Cl)C(=O)c4ccccc4C3=O)c2)C(=O)c2ccccc21`, for which the GI50 in the assay on CAKI-1 renal is 5.36 µM; with HCC-2998 colon, 6.71 µM; with HCT-15 colon it was 3.46 µM; in the assay on HOP-62 NSCLC, 2.71 µM; in the assay with OVCAR-3 ovarian, 1.69 µM; in the assay with PC-3 prostate, 3.63 µM. For the same molecule, the GI50 was 3.43 µM with SF-539 CNS, 32.9 µM with SK-MEL-28 melanoma, 4.34 µM in the assay with SNB-19 CNS and 2300 nM in the assay with SNB-75 CNS. Also, the TGI with CAKI-1 renal is 29 µM; in the assay with HCC-2998 colon it was 41.2 µM; in the assay on HCT-15 colon it was over 100 µM; with HOP-62 NSCLC, over 100 µM; with OVCAR-3 ovarian, 3.21 µM; in the assay on PC-3 prostate, 24.8 µM. The TGI in the assay on SF-539 CNS is 24.2 µM; in the assay with SK-MEL-28 melanoma, 96.5 µM; in the assay with SNB-19 CNS, 59.4 µM; with SNB-75 CNS, 6.97 µM.
On to `CN(CCCCCl)P(=O)(OCCS(=O)(=O)CC(NC(=O)CCC(N)C(=O)O)C(=O)NC(C(=O)O)c1ccccc1)OCC1OC(n2ccc(N)nc2=O)C(O)C1O` (stereo not drawn), for which the GI50 in the assay with CAKI-1 renal was 11 µM; with HCC-2998 colon it was 28 µM; in the assay on HCT-15 colon, over 75 µM; in the assay with HOP-62 NSCLC it was 33.7 µM; in the assay with OVCAR-3 ovarian it was 33.7 µM; in the assay with PC-3 prostate, 2.26 µM. For the same molecule, the GI50 with SF-539 CNS is over 75 µM; with SK-MEL-28 melanoma it was 26.2 µM; in the assay with SNB-19 CNS, 45.8 µM; in the assay with SNB-75 CNS it was 40400 nM. Moreover, the TGI in the assay on CAKI-1 renal, in the assay with HCC-2998 colon, in the assay on HCT-15 colon, in the assay with HOP-62 NSCLC, in the assay on OVCAR-3 ovarian and in the assay on PC-3 prostate was over 75 µM in each case. Further, the TGI with SF-539 CNS was over 75 µM; in the assay with SK-MEL-28 melanoma it was over 75 µM; in the assay on SNB-19 CNS, over 75 µM; with SNB-75 CNS, 74.6 µM.
Regarding `CC1=CC(C)=NN=C(N)N1S(=O)(=O)c1cc(C)c(Cl)cc1SCc1ccccc1`, the GI50 in the assay on CAKI-1 renal was over 100 µM; with HCC-2998 colon, 11.9 µM; in the assay with HCT-15 colon, 7.86 µM; in the assay with HOP-62 NSCLC, 72.4 µM; in the assay with OVCAR-3 ovarian, 22.6 µM; with PC-3 prostate, 6.15 µM. Further, the GI50 is over 100 µM with SF-539 CNS, 88.5 µM with SK-MEL-28 melanoma, 30.3 µM with SNB-19 CNS and 23500 nM in the assay with SNB-75 CNS. The TGI in the assay on CAKI-1 renal, in the assay with HCC-2998 colon, in the assay with HCT-15 colon, with HOP-62 NSCLC, in the assay with OVCAR-3 ovarian and with PC-3 prostate was over 100 µM in each case. The TGI in the assay with SF-539 CNS, in the assay on SK-MEL-28 melanoma, with SNB-19 CNS and in the assay on SNB-75 CNS was over 100 µM throughout.
In the case of `Oc1ccc(Nc2ccc3ccccc3c2)cc1`, the GI50 in the assay on CAKI-1 renal was 1.52 µM; with HCC-2998 colon, 4.29 µM; in the assay with HCT-15 colon, 3.96 µM; in the assay with HOP-62 NSCLC, 10.4 µM; in the assay on OVCAR-3 ovarian it was 5.66 µM; in the assay with PC-3 prostate, 4.41 µM. In addition, the GI50 with SF-539 CNS is 3.38 µM; with SK-MEL-28 melanoma, 14.1 µM; with SNB-19 CNS it was 20.4 µM; in the assay on SNB-75 CNS, 2780 nM. In addition, the TGI in the assay on CAKI-1 renal came to 5.93 µM; with HCC-2998 colon, 17.8 µM; in the assay with HCT-15 colon it was 23.5 µM; in the assay with HOP-62 NSCLC, 41.5 µM; with OVCAR-3 ovarian it was 19 µM; with PC-3 prostate, 68.2 µM. Further, the TGI with SF-539 CNS is 18.6 µM; in the assay with SK-MEL-28 melanoma, over 100 µM; with SNB-19 CNS, over 100 µM; with SNB-75 CNS, 35.9 µM.
Regarding `CCN(CC)CCCC(C)Nc1ccnc2cc(Cl)ccc12` (stereo not drawn), the GI50 in the assay on CAKI-1 renal is 28.8 µM; with HCT-15 colon it was 57.9 µM; in the assay on HOP-62 NSCLC, over 100 µM; in the assay on OVCAR-3 ovarian, 22.3 µM; with PC-3 prostate, 98.4 µM; in the assay with SK-MEL-28 melanoma it was 39.9 µM. In addition, the GI50 in the assay on SNB-19 CNS was over 100 µM; in the assay on SNB-75 CNS, over 100000 nM. For the same molecule, the TGI with CAKI-1 renal is 79.7 µM and 55.7 µM; with HCC-2998 colon, 48.8 µM; with HCT-15 colon, over 100 µM; in the assay with HOP-62 NSCLC it was over 100 µM; in the assay with OVCAR-3 ovarian, 75.6 µM and > 100 µM; in the assay with PC-3 prostate it was over 100 µM. The TGI was 35.7 µM and 32.5 µM in the assay on SF-539 CNS; > 100 µM and 42.3 µM in the assay with SK-MEL-28 melanoma; over 100 µM with SNB-19 CNS; over 100 µM in the assay on SNB-75 CNS.
As to `CC(=O)OC1CCC2(C)C(CCC3C2CC(=O)C2(C)C3CC(N3CC3)C2C(C)=O)C1` (stereo not drawn), the TGI with CAKI-1 renal is 34.6 µM; in the assay on HCC-2998 colon, 32 µM; with HCT-15 colon, 70.6 µM; with HOP-62 NSCLC it was over 100 µM; in the assay with OVCAR-3 ovarian, 97.3 µM; with PC-3 prostate, 30 µM. The TGI with SF-539 CNS is 37.3 µM; in the assay with SK-MEL-28 melanoma, over 100 µM; with SNB-19 CNS, 63.4 µM; in the assay on SNB-75 CNS, 42.6 µM.
